Experimental data published in paper PMC10080078, “Use of phage display biopanning as a tool to design CAR-T cells against glioma stem cells” (Frontiers in Oncology, 2023).
Several values for one entry are separate records, joined by “and”; a condition that tells them apart may be missing. Identical values can stand only once. Where no end group is shown, it is not given here.

How the values were obtained:
GSCs = conditions: ref ([22], [23]), cited from earlier work; for targeting of GSCs in vitro: previously demonstrated
Procedure: We have previously isolated glioblastoma stem cell targeting peptides through a combination of in vitro and in vivo biopanning strategies ([22], [23]). In vitro biopanning was performed by screening a random 7 amino acid phage peptide library against differentiated stem cells and glioblastoma stem cells grown in culture to isolate GSC-specific targeting peptides ( Figure 1A ). Two types of in vivo biopanning were performed, one against mice with intracranial GBM xenografts ( Figure 1B ) and one with subcutaneous flank xenografts ( Figure 1C ). Two peptides were selected for use in subsequent e ... || Figure 1 Peptide selection. Schematic representation of phage display strategies used to isolate the GSC-targeting peptides E (AWEFYFP) and V (SSQPFWS). […] Authors’ elaboration based on prior data from ([22], [23]).

[1] = tested on: intracranial GBM xenografts; conditions: ref ([22], [23]); cited from earlier work
Text: (§1) Figure 1 Peptide selection. Schematic representation of phage display strategies used to isolate the GSC-targeting peptides E (AWEFYFP) and V (SSQPFWS). […] Authors’ elaboration based on prior data from ([22], [23]).

N-cadherin [2] = conditions: by itself; ref manuscript under review; cited from earlier work
Text: Our study has illustrated the utility and feasibility of designing novel antigen-binding domains for CAR-T cells by using two short peptides of just seven amino acids each to induce functional recognition of GSCs.

[3] = biological target: T1, N-cadherin extracellular domain, amino acids 160-724 (Homo sapiens, UniProt P19022); assay: Surface plasmon resonance, single cycle kinetics (Biacore T200); assay type: binding
T1 construct: Recombinant Human N-Cadherin extracellular domain, amino acids 160-724; purchased R&D Systems 1388NC050
T1 sequence (P19022 160-724): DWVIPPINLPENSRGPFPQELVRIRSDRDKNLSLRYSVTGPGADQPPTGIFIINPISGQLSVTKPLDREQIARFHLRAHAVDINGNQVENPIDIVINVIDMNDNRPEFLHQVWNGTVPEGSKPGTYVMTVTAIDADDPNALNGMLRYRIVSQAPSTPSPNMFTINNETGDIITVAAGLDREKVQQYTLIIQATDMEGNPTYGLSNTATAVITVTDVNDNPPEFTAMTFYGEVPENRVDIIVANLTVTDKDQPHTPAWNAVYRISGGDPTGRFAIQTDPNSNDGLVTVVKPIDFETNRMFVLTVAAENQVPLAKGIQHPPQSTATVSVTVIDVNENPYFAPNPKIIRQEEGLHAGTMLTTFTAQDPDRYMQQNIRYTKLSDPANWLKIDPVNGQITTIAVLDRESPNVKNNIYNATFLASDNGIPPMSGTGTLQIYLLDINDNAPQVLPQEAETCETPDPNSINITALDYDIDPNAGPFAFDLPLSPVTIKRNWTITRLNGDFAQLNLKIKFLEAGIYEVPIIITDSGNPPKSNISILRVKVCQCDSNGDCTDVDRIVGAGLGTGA
Procedure: The direct binding measurements between N-cadherin and EV peptide by surface plasmon resonance was performed by immobilizing N-cadherin protein (Recombinant Human N-Cadherin extracellular domain, amino acids 160-724, 1388NC050, R&D Systems, Minneapolis, MN) to a CM5 sensor chip surface docked in Biacore T200 (Cytiva, Marlborough, MA) at 25°C using an amine-coupling method. Prior to immobilization, the chip was primed and equilibrated with a running buffer containing 20 mM HEPES, pH 7.4, 1 mM TCEP, 2 mM CaCl2 and 150 mM NaCl at a flow rate of 10 µL/min. The carboxymethyl surface of the CM5 chip was manually activated for 7 minutes using a 1:1 ratio of 0.4 M 1-ethyl-3-(3-[…]) carbodiimide hydrochloride (EDC) and 0.1 M N-hydroxysuccinimide (NHS) to achieve a density of about 10,000 RU per flow cell. N-cadherin protein stock (1.12 µM) was diluted to 100 nM in 10 mM sodium acetate, pH 4.5, and manually injected over the surface at the same flow rate. […]
For kinetic titration experiments, the same running buffer was used except with the inclusion of 5% DMSO. […] Sensorgrams were solvent corrected, buffer referenced, and the on-rate, off-rate, and equilibrium binding constants were calculated from the sensorgrams by global fitting of a 1:1 binding model, using analysis software (version 3.0) provided with Biacore T200 instrument (Cytiva).

N-cadherin [4] = assay: Immunoblot of peptide pull-down; assay type: binding; conditions: biotinylated peptide 40 μg on streptavidin agarose
Procedure: Cells were lysed using the IP Lysis Buffer Protocol (Pierce, Waltham, MA) as described by the manufacturer. Biotinylated peptides (EV-b and NT-b, 40 μg) were incubated with 100 μL of streptavidin agarose resin at 4°C for 1 hour on a rotator to generate the peptide-coupled streptavidin agarose resin. The protein samples were pre-cleared by incubation of 50 μL of NT-streptavidin agarose resins (4°C on rotator for 1 hour). After centrifugation, the pre-cleared samples were incubated with 150 μL of EV-coupled streptavidin agarose resin at 4°C overnight on rotator. After PBS wash, the resin was pelleted and sent for mass spectrometry analysis (see details in Supplementary Methods ) or eluted with 4x Laemmli Sample Buffer (Bio-Rad, Hercules, CA) containing 1X DTT reducing agent (dithiothreitol, Cell Signaling Technology, Danvers, MA) and boiled for SDS-PAGE. Pulled-down proteins were then separated with a Novex™ WedgeWell™ (ThermoFisher Scientific, Waltham, MA) and transferred to polyvinylidene fluoride (PVDF) membranes (Millipore, Burlington, MA). Membrane-transferred proteins were immunoblotted with an antibody recognizing N-cadherin (1/10000, NBP2-01498, Novus Biologicals, Littleton, CO) ( Supplemental Figure 2 ).

[5] = tested on: subcutaneous flank GBM xenografts; conditions: ref ([22], [23]); cited from earlier work
Text: as §1

[6] = biological target: T2, Recombinant Human N-Cadherin extracellular domain, amino acids 160-724 (human, UniProt P19022 160-724); assay: SPR; N-cadherin amine-coupled to CM5 chip (about 3500 RU), Biacore T200, 25°C; 20 mM HEPES pH 7.4, 1 mM TCEP, 2 mM CaCl2, 150 mM NaCl, 5% DMSO; single cycle kinetics, peptide 2 to 167 µM; 1:1 binding model; conditions: both partners purified
T2 construct: N-cadherin (CDH2), human, extracellular domain, amino acids 160-724; also called recombinant N-cadherin; recombinant extracellular N-cadherin protein; source: bought: R&D Systems
T2 sequence (looked up): T1 sequence (P19022 160-724)

[7] = biological target: T2, Recombinant Human N-Cadherin …; assay: ELISA; plates coated with 2.5 μg/mL recombinant N-cadherin; biotinylated peptides at different concentrations in PBS-2%-BSA, 1 hour at RT; streptavidin-HRP; conditions: both partners purified

Question: Which “targeting of GSCs in vitro” value (GSCs) does the source give for “AWEFYFP [isolated from both the in vitro and intracranial in vivo biopanning]” here?
Answer: Its value is “specificity for targeting GSCs in vitro”.

Question: And the “enrichment in in vitro biopanning” value (GSCs)?
Answer: Its value is “one of the most enriched”.

Question: And the “enrichment in in vivo biopanning, intracranial” value [1]?
Answer: The value was “one of the most enriched”.

Question: And the “binding of single peptide E to N-cadherin” value (N-cadherin [2])?
Answer: The value was “positive binding to N-cadherin”.

Question: With AWEFYFPGGGGSGGGGSGGGGSSSQPFWS [EV] as the molecule, how does the kon ([3]; CM5 chip, 25°C, 20 mM HEPES pH 7.4, 1 mM TCEP, 2 mM CaCl2, 150 mM NaCl, 5% DMSO, EV 2 to 167 µM, 1:1 model, first run, read-out: on-rate (ka)) read?
Answer: The kon was 2620 M⁻¹ s⁻¹.

Question: Which “N-cadherin antibody signal in peptide pull-down immunoblot” value (N-cadherin [4]) does the source give for “FAYPEWFGGGGSGGGGSGGGGSPSWSFSQ [NT, reference compound]” here?
Answer: Its value is “absent”.

Question: And the “SPR response / KD of NT peptide” value ([3]; identical condition, NT peptide in SPR is GGGSGGG, could not be fitted for reliable extraction of the KD)?
Answer: Its value is “did not exhibit significant resonance units”.

Question: For “SSQPFWS [V, isolated from the subcutaneous flank biopanning]”, which “targeting of GSCs in vitro” value (GSCs) is on record?
Answer: Its value is “specificity for targeting GSCs in vitro”.

Question: What about the “enrichment in in vivo biopanning on subcutaneous tumors” value [5] of the same molecule?
Answer: The value was “one of the most enriched”.

B1: EV peptide as used in surface plasmon resonance (peptide)
peptide: AWEFYFPGGGGSGGGGSGGGGSSSQPFWS
notes: dual peptide EV; the SPR methods say only 'EV peptide'; source: synthetic peptide
Question: With B1 as the molecule, how does the Kd [6] read?
Answer: Its Kd is 9.4 µM and 8.45 µM and 7.5 µM.

Question: What about the koff [6] of the same molecule?
Answer: Its koff is 0.0196 s⁻¹.

B2: biotinylated dual peptide EV (EV-b) (peptide)
peptide: AWEFYFPGGGGSGGGGSGGGGSSSQPFWS
modifications: also: biotin conjugated, position not given here
notes: 29 amino acids; also called EV-biotinylated peptide; source: synthetic peptide (LifeTein)
Question: Does B2 bind [7]?
Answer: Result: binds
